Measurements published in patent publication US20090118331A1, “Use of Lobeline Epimers in the Treatment of Central Nervous System Diseases, Pathologies, and Drug Abuse” (priority 2007, published 2009).

Key:
[1] = Lobeline conversion to epimer in the buffer system used at 37° C. in the VMAT2 uptake study (HPLC); assay type: physicochemical; details: for Epimer %: VMAT2 uptake buffer, 37° C.
[2] = Lobeline epimerization in pH 7.4 phosphate buffer control; details: after 2 hours, with impurity
Method: In order to determine the tendency of lobeline to undergo epimerization in the HEPES buffer employed in the 25° C. [^3H]DTBZ binding study and the 37° C. VMAT2 uptake studies previously described, analogous solution epimerization experiments were conducted using the corresponding conditions for each individual assay. […] As this dynamic phenomenon occurs, the ratio of lobeline to lobeline epimer in solution naturally changes over time. Further, depending upon the solution conditions, the rate and extent of epimerization may vary; thus, a ratio of lobeline to epimer, if achieved, may occur at various time points. After 2 hours, the 25° C. […] The epimerization of lobeline in the 37° C.

[3] = Lobeline conversion to epimer in the HEPES buffer system used at 25° C. in the [^3H]DTBZ binding study (HPLC); assay type: physicochemical; details: for Epimer %: [^3H]DTBZ binding buffer, 25° C.
Method: The initial dissolution of lobeline in water was followed by a 1:1 dilution of this stock solution in the appropriate HEPES buffer system, incubation at the prescribed temperature, and HPLC assay of each epimer and potential degradants over 2 hour incubation.
After 2 hours, the 25° C.

[4] = Lobeline conversion to epimer in deionized water (HPLC); assay type: physicochemical
Method: Extensive in vitro studies on the epimerization of lobeline were conducted in a variety of aqueous media. […] The concentration of the lobeline solution (500 mL) was ca. 0.5 mg/mL, and 1.5 mL aliquot parts were removed in triplicate at each time point and analyzed by HPLC. Corresponding pH measurements were performed with a Coming Model 240 pH meter.

[5] = in vivo; details: female, rat, in vivo, iv, 2 mg/kg
Method: Here, serial doses of lobeline were administered to male and female rats intravenously, subcutaneously or orally, and the pharmacokinetic profiles of the parent lobeline and its epimer were monitored in plasma.

Q: Which “component content of solution” value ([1]; 37° C. uptake buffer with ATP-Mg2+ cofactor reduced from 2 mM to 0.4 mM, after 2 hours, with impurity) does the source give for CN1[C@H](CC(=O)c2ccccc2)CCC[C@H]1C[C@H](O)c1ccccc1 (single isomer, unassigned; epimer 2) [Epimer, 2-[6S-(2S-hydroxy-2-phenyl-ethyl)-1-methyl-piperidin-2S-yl]-1-phenyl-ethanone] here?
A: 33%

Q: What about the “final component concentration (as a function of the area under the curve)” value ([1]; VMAT2 uptake buffer (HEPES), 2 hour incubation at 37° C.) of the same compound?
A: 30%

Q: What about the Epimer % ([1]; T0, sample age 0:01) of the same compound?
A: 1.76%

Q: What about the Epimer % ([1]; T5, sample age 0:05) of the same compound?
A: 3.34%

Q: And the Epimer % ([1]; T10, sample age 0:10)?
A: 5.47%

Q: What about the Epimer % ([1]; T15, sample age 0:15) of the same compound?
A: 8.62%

Q: What about the Epimer % ([1]; T25, sample age 0:25) of the same compound?
A: 13.2%

Q: And the Epimer % ([1]; T30, sample age 0:30)?
A: 14.9%

Q: What about the Epimer % ([1]; T35, sample age 0:35) of the same compound?
A: 16.2%

Q: What about the Epimer % ([1]; T40, sample age 0:40) of the same compound?
A: 17.7%

Q: What about the Epimer % ([1]; T45, sample age 0:45) of the same compound?
A: 18.9%

Q: What about the Epimer % ([1]; T50, sample age 0:50) of the same compound?
A: 20.1%

Q: What about the Epimer % ([1]; T55, sample age 0:55) of the same compound?
A: 21.0%

Q: And the Epimer % ([1]; T60, sample age 1:00)?
A: 22.1%

Q: And the Epimer % ([1]; T70, sample age 1:10)?
A: 24.3%

Q: What about the Epimer % ([1]; T80, sample age 1:20) of the same compound?
A: 26.1%

Q: And the Epimer % ([1]; T90, sample age 1:31)?
A: 26.9%

Q: What about the Epimer % ([1]; T100, sample age 1:40) of the same compound?
A: 28.0%

Q: And the Epimer % ([1]; T110, sample age 1:50)?
A: 29.2%

Q: And the Epimer % ([1]; T120, sample age 2:00)?
A: 30.3%

Q: What about the “component content of solution” value ([2]; pH 7.4 phosphate buffer control, same temperature as 25° C. binding buffer) of the same compound?
A: 35%

Q: What about the “component content of solution” value ([2]; phosphate buffer control for the 37° C. VMAT2 uptake buffer) of the same compound?
A: 36%

Q: And the “final component concentration (as a function of the area under the curve)” value ([3]; HEPES [^3H]DTBZ binding buffer, after 2 hours at 25° C.)?
A: 17%

Q: What about the Epimer % ([3]; T0, sample age 0:01) of the same compound?
A: 1.54%

Q: What about the Epimer % ([3]; T5, sample age 0:06) of the same compound?
A: 2.16%

Q: And the Epimer % ([3]; T10, sample age 0:10)?
A: 3.34%

Q: And the Epimer % ([3]; T15, sample age 0:15)?
A: 4.55%

Q: What about the Epimer % ([3]; T20, sample age 0:20) of the same compound?
A: 5.27%

Q: And the Epimer % ([3]; T25, sample age 0:25)?
A: 5.91%

Q: What about the Epimer % ([3]; T30, sample age 0:31) of the same compound?
A: 7.18%

Q: And the Epimer % ([3]; T35, sample age 0:35)?
A: 7.30%

Q: What about the Epimer % ([3]; T40, sample age 0:40) of the same compound?
A: 8.66%

Q: What about the Epimer % ([3]; T45, sample age 0:45) of the same compound?
A: 9.31%

Q: What about the Epimer % ([3]; T50, sample age 0:50) of the same compound?
A: 9.94%

Q: And the Epimer % ([3]; T55, sample age 0:55)?
A: 10.2%

Q: And the Epimer % ([3]; T60, sample age 1:00)?
A: 10.9%

Q: And the Epimer % ([3]; T70, sample age 1:10)?
A: 11.9%

Q: And the Epimer % ([3]; T80, sample age 1:20)?
A: 13.1%

Q: And the Epimer % ([3]; T90, sample age 1:31)?
A: 14.1%

Q: What about the Epimer % ([3]; T100, sample age 1:40) of the same compound?
A: 15.2%

Q: And the Epimer % ([3]; T110, sample age 1:50)?
A: 16.1%

Q: What about the Epimer % ([3]; T120, sample age 2:01) of the same compound?
A: 17.0%

Q: What about the “% Epimer (Mean ± SD)” value ([4]; Solution 1 (Lobeline in “fresh” DI Water), time 0, pH 6.02) of the same compound?
A: 0.83%

Q: What about the “% Epimer (Mean ± SD)” value ([4]; Solution 1 (“fresh” DI Water), 15 min, pH 6.03-6.24) of the same compound?
A: 0.83 ± 0.054%

Q: What about the “% Epimer (Mean ± SD)” value ([4]; Solution 1 (“fresh” DI Water), 30 min, pH 6.02-6.24) of the same compound?
A: 0.99 ± 0.164%

Q: And the “% Epimer (Mean ± SD)” value ([4]; Solution 1 (“fresh” DI Water), 45 min, pH 6.13-6.37)?
A: 0.95 ± 0.144%

Q: And the “% Epimer (Mean ± SD)” value ([4]; Solution 1 (“fresh” DI Water), 1 h, pH 6.26-6.52)?
A: 1.00 ± 0.196%

Q: And the “% Epimer (Mean ± SD)” value ([4]; Solution 1 (“fresh” DI Water), 80 min, pH 6.19-6.50)?
A: 1.46 ± 0.112%

Q: And the “% Epimer (Mean ± SD)” value ([4]; Solution 1 (“fresh” DI Water), 100 min, pH 6.16-6.50)?
A: 1.50 ± 0.139%

Q: What about the “% Epimer (Mean ± SD)” value ([4]; Solution 1 (“fresh” DI Water), 2 h, pH 5.63-5.88) of the same compound?
A: 1.58 ± 0.599%

Q: What about the “% Epimer (Mean ± SD)” value ([4]; Solution 2 (Lobeline in “8-h” DI Water), time 0, pH 7.87) of the same compound?
A: 1.03%

Q: And the “% Epimer (Mean ± SD)” value ([4]; Solution 2 (“8-h” DI Water), 15 min, pH 7.78-8.21)?
A: 0.66 ± 0.273%

Q: And the “% Epimer (Mean ± SD)” value ([4]; Solution 2 (“8-h” DI Water), 30 min, pH 7.58-7.85)?
A: 0.52 ± 0.214%

Q: And the “% Epimer (Mean ± SD)” value ([4]; Solution 2 (“8-h” DI Water), 45 min, pH 7.66-7.68)?
A: 0.65 ± 0.056%

Q: What about the “% Epimer (Mean ± SD)” value ([4]; Solution 2 (“8-h” DI Water), 1 h, pH 6.84-7.11) of the same compound?
A: 0.80 ± 0.087%

Q: And the “% Epimer (Mean ± SD)” value ([4]; Solution 2 (“8-h” DI Water), 80 min, pH 6.53-6.79)?
A: 0.90 ± 0.150%

Q: And the “% Epimer (Mean ± SD)” value ([4]; Solution 2 (“8-h” DI Water), 100 min, pH 6.24-6.51)?
A: 1.01 ± 0.207%

Q: What about the “% Epimer (Mean ± SD)” value ([4]; Solution 2 (“8-h” DI Water), 2 h, pH 6.21-6.49) of the same compound?
A: 1.22 ± 0.257%

Q: What about the “ratio of epimer to lobeline obtained in vitro” value ([4]; in vitro with water at pH 7) of the same compound?
A: approximately 0.5

Q: What about the “change in epimer concentration” value ([4]; lobeline dissolved in deionized water, over a 2-h period at 25° C.) of the same compound?
A: < 1%

Q: What about the AUC(0-inf) [5] of the same compound?
A: 76.9 ng·h/mL

Q: What about the AUC(0-t) [5] of the same compound?
A: 75.4 ng·h/mL

Q: What about the Cmax [5] of the same compound?
A: 53.9 ng/mL

Q: And the MRT last [5]?
A: 95.9 min

Q: And the Tmax [5]?
A: 15 min

Q: What about the Vd [5] of the same compound?
A: 45.9 L/kg
